Assay [1] can be described thus: Inhibition of FGFR1 in human NCI-H1581 cells assessed as inhibition of cell proliferation after 72 hrs by cell counting kit-8 assay.
Assay [2] in a line: Inhibition of FGFR1OP2 fused FGFR1 in human KG1 cells assessed as inhibition of cell proliferation after 72 hrs by cell counting kit-8 assay.
Assay [3] is described as follows: Inhibition of TEL-fused KDR (unknown origin) expressed in mouse Ba/F3 cells assessed as inhibition of cell proliferation after 72 hrs by cell counting kit-8 assay. A general note: Tetrazolium assays rely on reduction of a dye to a coloured formazan, in cell work by metabolically active cells.
The nature of assay [4]: Inhibition of CCDC6-fused RET (unknown origin) expressed in mouse Ba/F3 cells assessed as inhibition of cell proliferation after 72 hrs by cell counting kit-8 assay.

For orientation: IC50 means the concentration that inhibits the measured activity by half.

On to `Cc1n[nH]c2ccc(-c3cc(N[C@@H](CO)c4ccccc4)cnc3-c3cc(F)ccc3O)cc12`, for which the half-inhibitory concentration (IC50) in assay [1] was 391 nM; in assay [2], 15 nM; in assay [3], 9.8 nM; in assay [4], 316 nM.

These data come from BindingDB's records for doi:10.1021/acs.jmedchem.7b00076 (University of Chinese Academy of Sciences, 2017).
